# Source: article PMC10932281, “A Combination of β-Aescin and Newly Synthesized Alkylamidobetaines as Modern Components Eradicating the Biofilms of Multidrug-Resistant Clinical Strains of Candida glabrata” (International Journal of Molecular Sciences, 2024)
# Read-outs that look alike come from different tables or passages of the source.
# Key:
# [1] = tested on: biofilms of C. glabrata DSM 1226 and two clinical isolates; design: method as in PMID 37508306; settings: combination with β-AE; biofilms of three strains; ref [12]; cited from earlier work
# [2] = tested on: C. glabrata strains (ATCC 90030, 2586, 2853); test: Interaction of AABs with antifungal agents, statements for all tested strains together; type: cell-based, Candida glabrata; settings: all of the tested C. glabrata strains; AABs 3 µM
# [3] = tested on: C. glabrata 2853 clinical strain; test: MIC90/MFC, EUCAST broth microdilution; type: cell-based, Candida glabrata; settings: Nakaseomyces glabratus; for MFC: read-out: MFC; for MIC90: read-out: MIC90
# [4] = tested on: C. glabrata 2853; test: Interaction of AABs (3 µM) with antifungal agents, modified checkerboard; type: cell-based, Candida glabrata; settings: for Multiplicity factor (MF) with C9: C9 3 µM; for MIC90 of antimycotic combined with C9: C9 at constant 3 µM; for MIC90 of antimycotic combined with C9 / MIC90 of antimycotic combined with C11 / MIC90 of antimycotic combined with C13 / MIC90 of antimycotic combined with C15: dilutions in µg/mL; for Multiplicity factor (MF) with C11: C11 3 µM; for MIC90 of antimycotic combined with C11: C11 at constant 3 µM; for Multiplicity factor (MF) with C13: C13 3 µM; for MIC90 of antimycotic combined with C13: C13 at constant 3 µM; for Multiplicity factor (MF) with C15: C15 3 µM; for MIC90 of antimycotic combined with C15: C15 at constant 3 µM
# [5] = tested on: C. glabrata 2586; test: FICI checkerboard, β-aescin with antifungal drugs; type: cell-based, Candida glabrata; settings: combination with β-aescin
# [6] = tested on: C. glabrata 2586 clinical strain; test: MIC90/MFC, EUCAST broth microdilution; type: cell-based, Candida glabrata; settings: Nakaseomyces glabratus; for MFC: read-out: MFC; for MIC90: read-out: MIC90
# [7] = tested on: C. glabrata ATCC 90030; test: MIC90/MFC, EUCAST broth microdilution; type: cell-based, Candida glabrata; settings: Nakaseomyces glabratus, ATCC90030, ATCC 90030; for MFC: read-out: MFC; for MIC90: read-out: MIC90
# [8] = tested on: C. glabrata ATCC 90030; test: FICI checkerboard, β-aescin with antifungal drugs; type: cell-based, Candida glabrata; settings: for FICI: combination with β-aescin
# [9] = tested on: C. glabrata 2586; test: Interaction of AABs (3 µM) with antifungal agents, modified checkerboard; type: cell-based, Candida glabrata; settings: for Multiplicity factor (MF) with C9: C9 3 µM; for Multiplicity factor (MF) with C11: C11 3 µM; for MIC90 of antimycotic combined with C11: C11 at constant 3 µM; for Multiplicity factor (MF) with C13: C13 3 µM; for MIC90 of antimycotic combined with C13: C13 at constant 3 µM; for Multiplicity factor (MF) with C15: C15 3 µM; for MIC90 of antimycotic combined with C15: C15 at constant 3 µM
# [10] = tested on: C. glabrata 2853; test: FICI checkerboard, β-aescin with antifungal drugs; type: cell-based, Candida glabrata; settings: for FICI: combination with β-aescin
# [11] = tested on: C. glabrata ATCC 90030; test: Interaction of AABs (3 µM) with antifungal agents, modified checkerboard; type: cell-based, Candida glabrata; settings: for Multiplicity factor (MF) with C9: C9 3 µM, |MF| = MIC90 alone/MIC90 with AAB; for MIC90 of antimycotic combined with C9: C9 at constant 3 µM; for MIC90 of antimycotic combined with C9 / MIC90 of antimycotic combined with C11 / MIC90 of antimycotic combined with C13 / MIC90 of antimycotic combined with C15: dilutions in µg/mL; for Multiplicity factor (MF) with C11: C11 3 µM; for MIC90 of antimycotic combined with C11: C11 at constant 3 µM; for Multiplicity factor (MF) with C13: C13 3 µM; for MIC90 of antimycotic combined with C13: C13 at constant 3 µM; for Multiplicity factor (MF) with C15: C15 3 µM; for MIC90 of antimycotic combined with C15: C15 at constant 3 µM
# [12] = tested on: C. glabrata ATCC 90030 and 24 clinical isolates; design: method as in PMID 26092104; settings: ref [8], cited from earlier work
# [13] = design: method as in doi:10.1007/BF02673395; settings: ref [48]; cited from earlier work
# [14] = tested on: C. albicans; design: method as in doi:10.1016/j.carbpol.2003.10.001; settings: C. albicans among organisms tested; ref [35]; cited from earlier work
Compound,FICI [1],MFC [3] [µg/mL],MIC90 [3] [µg/mL],Multiplicity factor (MF) with C9 [4],MIC90 of antimycotic combined with C9 [4],Multiplicity factor (MF) with C11 [4],MIC90 of antimycotic combined with C11 [4],Multiplicity factor (MF) with C13 [4],MIC90 of antimycotic combined with C13 [4],Multiplicity factor (MF) with C15 [4],MIC90 of antimycotic combined with C15 [4],FICI [5],MFC [6] [µg/mL],MIC90 [6] [µg/mL],MFC [7] [µg/mL],MIC90 [7] [µg/mL],FICI [8],Multiplicity factor (MF) with C9 [9],Multiplicity factor (MF) with C11 [9],MIC90 of antimycotic combined with C11 ([9]; dilutions in µg/mL),other results
CCC(C)n1ncn(-c2ccc(N3CCN(c4ccc(OCC5COC(Cn6cncn6)(c6ccc(Cl)cc6Cl)O5)cc4)CC3)cc2)c1=O (stereo not drawn) [Itraconazole],≤ 0.5,4100,4100,1,4096,1,4096,1,4096,1,4096,1.004,4100,4100,4100,4100,1.004,1,1,4096,"MF with AABs [2]: 1; MIC90 of antimycotic combined with C9 ([9]; C9 at constant 3 µM, dilutions in µg/mL): 4096; Multiplicity factor (MF) with C13 [9]: 1; MIC90 of antimycotic combined with C13 ([9]; dilutions in µg/mL): 4096; Multiplicity factor (MF) with C15 [9]: 1; MIC90 of antimycotic combined with C15 ([9]; dilutions in µg/mL): 4096; FICI [10]: 1.004; Multiplicity factor (MF) with C9 [11]: 1; MIC90 of antimycotic combined with C9 [11]: 4096; Multiplicity factor (MF) with C11 [11]: 1; MIC90 of antimycotic combined with C11 [11]: 4096; Multiplicity factor (MF) with C13 [11]: 1; MIC90 of antimycotic combined with C13 [11]: 4096; Multiplicity factor (MF) with C15 [11]: 1; MIC90 of antimycotic combined with C15 [11]: 4096"
C[C@@H]1[C@H](O)[C@@H](C)/C=C/C=C/CC/C=C/C=C/C=C/C=C/C(O[C@H]2O[C@H](C)[C@@H](O)[C@H](N)[C@@H]2O)CC2O[C@](O)(CC(O)C(O)CCC(O)CC(O)CC(O)CC(=O)O[C@H]1C)CC(O)C2C(=O)O (stereo partly drawn) [nystatin],,,,,,,,,,,,,,,,,,,,,Fold reduction of MIC ([12]; subinhibitory concentrations of β-AE crystalline): 2–16 fold; Fold reduction of MIC ([12]; subinhibitory concentrations of β-AE sodium): 2–4 fold
N-hexadecylamidepropylbetaine,,,,,,,,,,,,,,,,,,,,,Krafft point [13]: 16 °C
C12–C18 alkyl amido propyl dimethylamine betaine [AAPDB],,,,,,,,,,,,,,,,,,,,,Antimicrobial activity [14]: active
OC(Cn1cncn1)(Cn1cncn1)c1ccc(F)cc1F [Fluconazole],≤ 0.5,2050,32,1,32,2,16,2,16,16,2,1.25,2050,2050,2050,2050,0.25,8,64,32,Multiplicity factor (MF) with C9 ([4]; listed as fluconazole): did not interact; Type of interaction with β-AE (by FICI) [8]: synergistic; Multiplicity factor (MF) with C13 [9]: 64; MIC90 of antimycotic combined with C13 ([9]; dilutions in µg/mL): 32; Multiplicity factor (MF) with C15 [9]: 64; MIC90 of antimycotic combined with C15 ([9]; dilutions in µg/mL): 32; Type of interaction with β-AE (by FICI) [10]: additive; FICI [10]: 0.75; Multiplicity factor (MF) with C9 [11]: 16; MIC90 of antimycotic combined with C9 [11]: 128; Multiplicity factor (MF) with C11 [11]: 64; MIC90 of antimycotic combined with C11 [11]: 32; Multiplicity factor (MF) with C13 [11]: 64; MIC90 of antimycotic combined with C13 [11]: 32; Multiplicity factor (MF) with C15 [11]: 64; MIC90 of antimycotic combined with C15 [11]: 32
